Laboratory results as given in patent publication EP0497921B1, “METHOD FOR INHIBITING ENZYMATIC SYNTHESIS OF NUCLEIC ACIDS USING ISOPSORALENS” (ISAACS, Stephen T., priority 1989, dated 1991).

Target: Taq polymerase (Thermus aquaticus, UniProt P19821)
Assay: Primer extension on 71-mer after random addition of compound or addition of photoproduct
Assay type: biochemical
Conditions: for extension products, irradiated samples: 71-mer irradiated 15 minutes on CE-I at 25°C with AMIP (200 µg/ml), AMDMIP (200 µg/ml) or MIP (60 µg/ml), extension 5 minutes at 55°C
Excerpt: In this experiment, the ability of AMIP, AMDMIP and MIP to block replication of 71-mer is investigated by randomly adding each compound to the 71-mer. of course, addition may only be random in the sense that one or more adducts may be formed with any one strand of nucleic acid. The actual placement of the isopsoralen may be governed by preferential binding at particular sites (e.g. A:T). In addition to blockage by random adducts, photoproducts of the various isopsoralens may be providing an inhibitory effect. No attempt to separate the effects of photoproduct from the effects of covalent adducts on the 71-mer template was made in this series of experiments.
In these experiments, the 71-mer template (10^-9 M) was primed with ^32P-SK-39 (10^-8) and extended with Taq polymerase in a total volume of 20 µl. The dNTP concentration was 200 µM. In the control samples, the 71-mer, the primer, and the dNTPs were mixed in Taq buffer in a volume of 18 µl. These samples were initially denatured at 95°C for 5 minutes, followed by equilibration at 550C for 3 minutes. Taq enzyme was then added (0.5 units) and the extension reaction was carried out for 5 minutes at 55°C. The reaction was stopped by making the solution 10 mM in EDTA. In another set of samples, the 71-mer in 10 µl was mixed with either AMIP (200 µg/ml), AMDMIP (200 µg/ml), or MIP (60 µg/ml). Half of these samples were irradiated for 15 minutes on the CE-I device at 25°C. The other half was kept in the dark as controls. These samples were then mixed with the primer and dNTPs as before, and were subjected to the same thermal profile and extension reactions as the samples that were described earlier. The results were examined by PAGE. The extended product bands were identified by autoradiography, excised and counted (data not shown).
In this experiment, the ability of two different Phenylazide derivatives (see Table 1), photobiotin (Vector Labs) and monoazide ethidium chloride, to block replication of 71-mer was investigated by randomly adding each compound to the 71-mer. Again, addition may only be random in the sense that one or more adducts may be formed with any one strand of nucleic acid. The actual placement of these compounds may be governed by preferential binding at particular sites (e.g. A:T). In addition to blockage by random adducts, there may be inhibition by photoproducts. As in Example 23, no attempt was made to separate the impact of photoproducts from that of covalent binding of photoreactive compound on the 71-mer.
The two compounds, photobiotin and monoazide ethidium chloride, have different spectral characteristics. To activate these compounds, two different wavelength regions were selected using a single light source (General Electric Sunlamp, Model RSM, 275 watt). The light source was positioned 10 cm above uncapped Eppendorph tubes which contained samples to be irradiated. The samples were kept on ice during irradiation. A pyrex dish was placed between the lamp and the samples.
For samples containing photobiotin, 2.5 cm of water was added to the pyrex dish to help remove some of the infrared radiation. The samples were irradiated for 15 minutes.
For samples containing monoazide ethidium chloride, wavelengths less than 400 nm were filtered out by using 2.5 cm of an aqueous solution of 2.9 M NaNO2. Removal of short wavelengths (i.e. wavelengths shorter than 400 nm) is necessary for the use of monoazide ethidium chloride. Irradiation of this compound with shorter wavelengths results in conversion to non-active forms (data not shown). Wavelengths below 400 nm are therefore undesirable for use with this compound.
In this experiment, the 71-mer template (2 x 10^-9 M) in 10 µl was mixed with either no photoreactive compound, photobiotin (6 x 10^-6 M), or monoazide ethidium (1.4 x 10^-3 M). Half of each of these samples were irradiated on ice for 15 minutes with wavelengths appropriate for each specific photoreactive compound. […]

Sequence of Taq polymerase (P19821 whole entry): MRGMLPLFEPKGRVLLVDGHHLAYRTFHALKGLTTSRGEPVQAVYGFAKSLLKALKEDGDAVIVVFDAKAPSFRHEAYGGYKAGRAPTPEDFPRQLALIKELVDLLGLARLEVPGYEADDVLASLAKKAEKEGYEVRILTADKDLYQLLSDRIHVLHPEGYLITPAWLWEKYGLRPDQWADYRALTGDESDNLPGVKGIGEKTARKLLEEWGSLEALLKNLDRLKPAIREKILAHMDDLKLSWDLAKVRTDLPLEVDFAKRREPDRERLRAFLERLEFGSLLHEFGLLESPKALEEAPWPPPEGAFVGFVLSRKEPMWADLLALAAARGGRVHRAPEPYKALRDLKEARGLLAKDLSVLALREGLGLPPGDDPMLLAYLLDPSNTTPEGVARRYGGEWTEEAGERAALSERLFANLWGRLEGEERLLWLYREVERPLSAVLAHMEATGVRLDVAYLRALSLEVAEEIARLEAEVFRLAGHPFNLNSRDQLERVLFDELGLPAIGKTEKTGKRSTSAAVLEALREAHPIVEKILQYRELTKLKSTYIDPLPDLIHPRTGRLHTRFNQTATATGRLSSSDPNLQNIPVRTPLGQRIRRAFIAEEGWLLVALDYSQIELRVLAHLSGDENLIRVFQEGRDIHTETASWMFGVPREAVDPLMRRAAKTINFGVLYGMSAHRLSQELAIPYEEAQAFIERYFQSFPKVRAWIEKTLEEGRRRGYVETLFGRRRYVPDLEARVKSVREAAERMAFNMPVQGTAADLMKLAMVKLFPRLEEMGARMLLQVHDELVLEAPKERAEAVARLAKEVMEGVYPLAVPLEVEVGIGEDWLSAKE

Compound	extension products, irradiated samples	amount of full length product relative to the control samples (irradiated MIP (60 µg/ml))	extension products, 71-mer irradiated in the presence of AMDMIP (200 µg/ml AMDMIP, CE-I device at 25°C)	extension products, dark controls (unirradiated AMDMIP added to unirradiated 71-mer)
Cc1cc2occc2c2oc(=O)ccc12 [MIP, 5-Methylisopsoralen]	some full length extension product and a minor truncated product	half		
5-Aminomethylisopsoralen [AMIP]	not extended at all			
4'-Aminomethyl-4,5'-dimethylisopsoralen [AMDMIP]	not extended at all		no extension products at all	full length extension product
